From PMC5026167, “Characterizing Active Site Conformational Heterogeneity along the Trajectory of an Enzymatic Phosphoryl Transfer Reaction” (Angewandte Chemie (International Ed. in English), 2016)
Like-named read-outs stand apart in the source and are kept apart here.

What was measured:
UmpK (UMP/CMP kinase) [1] = target: T1, UmpK (UMP/CMP kinase) (Dictyostelium discoideum, UniProt P20425); experiment: biochemical; parameters: fluorescence titration of nucleotide binding to UmpK (MANT-ADP fluorescence / displacement); settings: Mg-free
T1 construct: gene pyrK; recombinant, expressed and purified as in Supporting Information; details not in main text
T1 sequence (P20425 whole entry): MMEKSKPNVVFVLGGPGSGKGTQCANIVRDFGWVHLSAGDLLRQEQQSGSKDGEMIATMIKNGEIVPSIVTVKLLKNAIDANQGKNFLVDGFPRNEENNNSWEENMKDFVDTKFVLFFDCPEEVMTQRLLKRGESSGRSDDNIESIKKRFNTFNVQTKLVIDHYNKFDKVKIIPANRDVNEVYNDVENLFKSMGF
Source text: (§1) First, we defined and characterized stable states along the reaction coordinate (Supporting Information). One reference state is nucleotide‐free (apo) UmpK (Figure 1 a), where the catalytic side‐chains are expected to be very flexible because of the absence of any ligand, thus giving an indication of the upper limit of conformational entropy. An ideal reference for a substrate/product‐bound state is provided by UmpK in complex with the bi‐substrate inhibitor AP5U (Supporting Information; Figure 1 b), where a phosphate group covalently links ATP and UMP such that nucleotide‐like binding occurs but without turnover.11 The overall structure of UmpK in complex with AP5U is essentially identical to other nucleotide‐bound structures available (Figure 1 b). Despite minor differences in the lid loop conformation and the aliphatic part of the R137 side‐chain, the position of the central guanidino groups is nearly identical. […] The transition state of the phosphoryl transfer reaction is well‐represented by UmpK in complex with the TSA formed by ADP, UMP/CMP and an AlFx molecule that mimics the phosphoryl group being transferred (Figure 1 c).7 To further confirm the formation of a stable complex that captures the transition state structure, we performed functional studies including nucleotide exchange kinetics measurements in the presence and absence of aluminium fluoride (Figures 1 f and S1/S2, Table S1).  Figure 1 a) Nucleotide‐free UmpK (H. sapiens, PDB: 1TEV10). b) Overlay of UmpK in complex with the bi‐substrate inhibitor AP5U, (red, D. discoideum, PDB: 1UKE11), and in complex with ADP and CMP (orange, D. discoideum, PDB: 2UKD7). c) UmpK in complex with the TSA ADP:AlFx:CMP (D. discoideum, PDB: 3UKD7). In (a–c) arginine side‐chains are shown in yellow (numbering refers to UmpK from D. discoideum). d) Schematic representation of the reaction catalyzed by UmpK and the states studied here: nucleotide‐free (green), substrate/product‐bound (red), and the transition state (blue). e) AP5U binding to UmpK monitored by equilibrium displacement of fluorescent MANT‐ADP. Binding of AP5U (K D≤1.0 nM) generates a stable substrate/product‐like state. f) Nucleotide exchange kinetics measured by stopped flow. UmpK incubated with UMP and ADP in the presence of 0.5 mM AlFx (blue), 3 mM MgFx (grey) or in the absence of any fluoride (red) was mixed rapidly with the competing ligand MANT‐AP5A‐MANT.

UmpK (UMP/CMP kinase) [2] = target: T1, UmpK (UMP/CMP kinase); experiment: biochemical; parameters: fluorescence titration, equilibrium binding / displacement of fluorescent MANT-ADP
Source text: as §1, with “MANT‐AP5A‐MANT. […] 3 Materials and Methods: 1. Mutagenesis, protein expression and purification: Arginine to lysine mutations were introduced into UmpK from Dictyostelium discoideum using the QuikChange® protocol. DNA sequencing was performed to verify the eight introduced mutations. Unlabeled [U-1 H,12C,14N] UmpK was expressed in LB medium, uniformly 15N-/ 13C-labeled [U-13C,15N] UmpK was expressed in M9 minimal medium using 2 g/L U-13C-glucose and 1 g/L 15NH4Cl as the sole carbon and nitrogen sources, respectively. Selectively labelled [13C,15N-Arg; U-12C,14N] UmpK and [13C,15N-Arg+Lys; U-12C,14N] UmpK with only (i) arginine residues or (ii) lysine and arginine residues isotopically labelled, respectively, were expressed in M9 minimal medium supplemented (i) 100 mg/L 15N-/ 13C-arginine or (ii) 100 mg/L 15N-/ 13C-arginine and 15N-/ 13C-lysine. All UmpK variants were purified as described previously using Blue Sepharose affinity chromatography and SourceQ anion exchange chromatography.” for “MANT‐AP5A‐MANT.”

UmpK (UMP/CMP kinase) [3] = target: T1, UmpK (UMP/CMP kinase); experiment: stopped-flow nucleotide exchange with MANT-AP5A-MANT; format: binding; settings: dissociation rate of ADP and UMP together, no metal fluoride
[4] = with 250 uM ADP, read-out: wild-type (Mg-free) in presence of 250 uM ADP
[5] = 5 mM MgCl2, alone, read-out: UmpK wild-type (5 mM MgCl2) Alone
[6] = with ADP, 5 mM MgCl2, 250 uM second nucleotide present, read-out: UmpK wild-type (5 mM MgCl2) in the presence of 250 uM second nucleotide
[7] = with CMP, 5 mM MgCl2, 250 uM second nucleotide present, read-out: UmpK wild-type (5 mM MgCl2) in the presence of 250 uM second nucleotide

SMILES	Kd (UmpK (UMP/CMP kinase) [1]; [4])	Kd (UmpK (UMP/CMP kinase) [2]; [5])	Kd (UmpK (UMP/CMP kinase) [2]; [6])	k fast (UmpK (UMP/CMP kinase) [3]; ADP present)	Kd (UmpK (UMP/CMP kinase) [1]; with 250 uM CMP, read-out: wild-type (Mg-free) in presence of 250 uM CMP)	Kd (UmpK (UMP/CMP kinase) [2]; [7])	k fast (UmpK (UMP/CMP kinase) [3]; UMP present)	Kd (UmpK (UMP/CMP kinase) [1]; with 250 uM CDP, read-out: wild-type (Mg-free) in presence of 250 uM CDP)
O=c1ccn([C@@H]2O[C@H](COP(=O)(O)OP(=O)(O)O)[C@@H](O)[C@H]2O)c(=O)[nH]1 [UDP]	400 ± 45 µM	600 ± 70 µM	60 ± 14 µM					
Nc1ccn([C@@H]2O[C@H](COP(=O)(O)OP(=O)(O)O)[C@@H](O)[C@H]2O)c(=O)n1 [CDP]	64 ± 6 µM	66 ± 11 µM	17 ± 3 µM					
O=c1ccn([C@@H]2O[C@H](COP(=O)(O)O)[C@@H](O)[C@H]2O)c(=O)[nH]1 [UMP]				~ 60 s^-1				
Nc1ncnc2c1ncn2[C@@H]1O[C@H](COP(=O)(O)OP(=O)(O)O)[C@@H](O)[C@H]1O [ADP]		80 ± 2 µM				10 ± 1 µM	~ 60 s^-1	49 ± 0.5 µM

Further compounds by falling Kd (UmpK (UMP/CMP kinase) [2]; [5]), results first:

Kd (UmpK (UMP/CMP kinase) [1]; [4])	Kd (UmpK (UMP/CMP kinase) [2]; [5])	Kd (UmpK (UMP/CMP kinase) [2]; [6])	k fast (UmpK (UMP/CMP kinase) [3]; ADP present)	Kd (UmpK (UMP/CMP kinase) [1]; with 250 uM CMP, read-out: wild-type (Mg-free) in presence of 250 uM CMP)	Kd (UmpK (UMP/CMP kinase) [2]; [7])	k fast (UmpK (UMP/CMP kinase) [3]; UMP present)	Kd (UmpK (UMP/CMP kinase) [1]; with 250 uM CDP, read-out: wild-type (Mg-free) in presence of 250 uM CDP)	SMILES
205 ± 20 µM	77 ± 11 µM	23 ± 3 µM						Nc1ccn([C@@H]2O[C@H](COP(=O)(O)O)[C@@H](O)[C@H]2O)c(=O)n1 [CMP]
	51 ± 2 µM			68 ± 3 µM	7.3 ± 0.4 µM			Nc1ncnc2c1ncn2[C@@H]1O[C@H](COP(=O)(O)OP(=O)(O)OP(=O)(O)O)[C@@H](O)[C@H]1O [ATP]
